Source: the NIST ThermoML archive (doi:10.1021/je049919e)

Columns and labels:
[1] = Ring tensiometer
[2] = xn = mol fraction of the nth substance listed; conditions: Ring tensiometer

OCCO [1,2-ethanediol]
[1]
Conditions	surface tension liquid-gas [mN/m]
293.15 K	48.55
298.15 K	48.11
303.15 K	47.58
308.15 K	47.14
313.15 K	46.79
318.15 K	46.29
323.15 K	45.99

OCCO [1,2-ethanediol] + CC1CCC(O)CC1
[2], x2 = 0
Conditions	surface tension liquid-gas [mN/m]
293.15 K	48.55
298.15 K	48.11
303.15 K	47.58
308.15 K	47.14
313.15 K	46.79
318.15 K	46.29
323.15 K	45.99

OCCO [1,2-ethanediol] + CC1CCCC(O)C1
[2], x2 = 0
Conditions	surface tension liquid-gas [mN/m]
293.15 K	48.55
298.15 K	48.11
303.15 K	47.58
308.15 K	47.14
313.15 K	46.79
318.15 K	46.29
323.15 K	45.99

OCCO [1,2-ethanediol] + CC1CCCCC1O
[2], x2 = 0
Conditions	surface tension liquid-gas [mN/m]
293.15 K	48.55
298.15 K	48.11
303.15 K	47.58
308.15 K	47.14
313.15 K	46.79
318.15 K	46.29
323.15 K	45.99

CC1CCCCC1O (stereo not given) [2-methylcyclohexanol]
[1]
Conditions	surface tension liquid-gas [mN/m]
293.15 K	31.01
298.15 K	30.57
303.15 K	30.19
308.15 K	29.81
313.15 K	29.37
318.15 K	28.98
323.15 K	28.57

CC1CCCCC1O (stereo not given) [2-methylcyclohexanol] + OCCO
surface tension liquid-gas [mN/m], [2]
Conditions	293.15 K	298.15 K	303.15 K	308.15 K	313.15 K	318.15 K	323.15 K
x1 = 0.04	40.61	40.3	39.94	39.67	39.4	39.13	38.89
x1 = 0.105	36.13	35.89	35.62	35.32	35.07	34.81	34.56
x1 = 0.2	34.46	34.17	33.85	33.55	33.26	32.98	32.68
x1 = 0.307	33.49	33.2	32.88	32.58	32.22	31.94	31.63
x1 = 0.399	32.94	32.61	32.26	31.96	31.62	31.31	30.97
x1 = 0.514	32.38	32.03	31.68	31.33	30.98	30.69	30.36
x1 = 0.553	32.22	31.87	31.54	31.19	30.81	30.49	30.13
x1 = 0.76	31.72	31.36	30.97	30.61	30.29	29.91	29.52
x1 = 0.791	31.51	31.1	30.73	30.38	30	29.59	29.24
x1 = 0.892	31.2	30.78	30.39	30.05	29.67	29.27	28.87
x1 = 1	31.01	30.57	30.19	29.81	29.37	28.98	28.57

CC1CCCC(O)C1 (stereo not drawn) [3-methyl-1-cyclohexanol, (cis+trans)]
[1]
Conditions	surface tension liquid-gas [mN/m]
293.15 K	27.82
298.15 K	27.48
303.15 K	27.12
308.15 K	26.76
313.15 K	26.4
318.15 K	26.06
323.15 K	25.7

CC1CCCC(O)C1 (stereo not drawn) [3-methyl-1-cyclohexanol, (cis+trans)] + OCCO
surface tension liquid-gas [mN/m], [2]
Conditions	293.15 K	298.15 K	303.15 K	308.15 K	313.15 K	318.15 K	323.15 K
x1 = 0.05	36.72	36.51	36.29	36.07	35.88	35.66	35.44
x1 = 0.097	34.08	33.87	33.67	33.46	33.26	33.08	32.89
x1 = 0.258	31.57	31.25	30.97	30.7	30.42	30.15	29.91
x1 = 0.329	30.94	30.6	30.32	30.01	29.75	29.48	29.17
x1 = 0.389	30.57	30.23	29.98	29.65	29.38	29.09	28.76
x1 = 0.535	29.84	29.51	29.19	28.86	28.57	28.28	27.96
x1 = 0.623	29.39	29.05	28.75	28.43	28.14	27.82	27.42
x1 = 0.768	28.85	28.47	28.16	27.8	27.46	27.18	26.84
x1 = 0.864	28.43	28.02	27.68	27.34	27.03	26.69	26.33
x1 = 0.899	28.24	27.9	27.56	27.24	26.85	26.5	26.18
x1 = 1	27.82	27.48	27.12	26.76	26.4	26.06	25.7

CC1CCC(O)CC1 (stereo not given) [4-methylcyclohexanol]
[1]
Conditions	surface tension liquid-gas [mN/m]
293.15 K	27.63
298.15 K	27.3
303.15 K	26.98
308.15 K	26.61
313.15 K	26.31
318.15 K	25.96
323.15 K	25.63

CC1CCC(O)CC1 (stereo not given) [4-methylcyclohexanol] + OCCO
surface tension liquid-gas [mN/m], [2]
Conditions	293.15 K	298.15 K	303.15 K	308.15 K	313.15 K	318.15 K	323.15 K
x1 = 0.05	38.1	37.85	37.64	37.39	37.15	36.9	36.69
x1 = 0.097	34.38	34.18	33.98	33.78	33.6	33.4	33.21
x1 = 0.258	32.47	32.24	32.03	31.79	31.57	31.34	31.1
x1 = 0.329	31.48	31.24	30.99	30.74	30.48	30.26	30.01
x1 = 0.389	30.64	30.37	30.08	29.81	29.55	29.32	29.04
x1 = 0.535	30.35	30.05	29.77	29.48	29.23	28.96	28.68
x1 = 0.623	29.63	29.34	29.02	28.74	28.48	28.18	27.88
x1 = 0.768	29.21	28.92	28.6	28.29	28.02	27.73	27.4
x1 = 0.864	28.71	28.41	28.07	27.76	27.47	27.18	26.84
x1 = 0.899	28.07	27.75	27.43	27.11	26.77	26.45	26.15
x1 = 1	27.63	27.3	26.98	26.61	26.31	25.96	25.63
